Data published in patent US20100016376A1, “CASPASE INHIBITORS BASED ON PYRIDONE SCAFFOLD” (LG Life Sciences Ltd., priority 2006, published 2010).

Assays:
[1] = target: T1, caspase-8 (Homo sapiens, UniProt Q14790); assay: Assay for the caspase inhibitory effect (fluorescent substrate AcDEVD-AFC); assay type: biochemical; conditions: pH 7.5; 2.1 nM caspase-8, 50 μM AcDEVD-AFC, 25° C., pH 7.50; read-out: Caspase-8 Kobs/[I] (converted)
T1 construct: p10 and p20 subunits (Thornberry, N. A. et al, Nature, 1992, 356, 768) were expressed in E. coli; made in house; host or cells: E. coli
T1 sequence (Q14790 217-374 limits assumed, species assumed): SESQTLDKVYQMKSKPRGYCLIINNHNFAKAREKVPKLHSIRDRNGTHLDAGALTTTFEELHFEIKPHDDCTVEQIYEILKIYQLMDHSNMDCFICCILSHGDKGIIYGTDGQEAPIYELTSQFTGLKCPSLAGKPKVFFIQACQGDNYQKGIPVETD
T1 sequence (Q14790 385-479 limits assumed, species assumed): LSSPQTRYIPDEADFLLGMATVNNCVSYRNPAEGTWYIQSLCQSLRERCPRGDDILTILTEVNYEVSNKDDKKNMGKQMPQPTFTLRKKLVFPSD
Procedure: Caspase-1 and caspase-8 known as cysteine proteases in the form of α2β2 were expressed, purified, and activated by modifying a method known in Thornberry, N. A. et al, Nature, 1992, 356, 768; Thornberry, N. A. Methods in Enzymology, 1994, 244, 615; Walker, N. P. C. et al. Cell, 1994, 78, 343, and caspase-9 was also purified by a similar method, and the inhibitory activity against them was tested. Briefly describing, p10 and p20 subunits (Thornberry, N. A. et al, Nature, 1992, 356, 768) were expressed in E. coli and purified by nickel column and anionic exchange chromatography to give caspase-1, caspase-8 and caspase-9. The fluorescent substrates AcYVAD-AFC for thus obtained caspase-1, AcDEVD-AFC for caspase-8, and AcLEHD-AFC for caspase-9, were used for determining specific activity of the synthesized inhibitors. The enzyme reaction was carried cut at 25° C. with various concentrations of the inhibitors in a buffer solution containing 50 mM HEPES(pH 7.50), 10% (w/v) sucrose, 0.1% (w/v) CHAPS, 100 mM NaCl, 1 mM EDTA, and 10 mM DTT in the presence of 50 μM AcYVAD-AFC for 10 nM caspase-1, 50 μM AcDEVD-AFC for 2.1 nM caspase-8, and 150 μM AcLEHD-AFC for 200 nM caspase-9. The inhibitory constants Ki and Kobs of the inhibitors were determined by measuring the reaction velocity with the time lapse using a fluorescent spectrometer and by obtaining the initial rate constant. Ki was calculated from the Lineweaver Burk Plot, and Kobs from the following Equation 1.
Kobs=−ln (1−At/Aoo)/t [Equation 1]
At means cleavage rate (%) at time t, and
Aoo means the maximum cleavage rate (%).
Spectra MAX GeminiXS Fluorescent Spectrometer of Molecular Device Co. W is used at the excitation wavelength of 405 nm and the emission wavelength of 505 nm.

[2] = system: Jurkat cell (ATCC TIB-152); assay: Jurkat cell apoptosis induced by Fas antibody, WST-1 method; assay type: cell-based; conditions: Homo sapiens, amount of alive Jurkat cells by WST-1
Procedure: The […] inhibitory activity of the inhibitors was determined by subjecting Jurkat cell (ATCC TIB-152) to apoptosis using Fas antibody (Upstate Biotech 05-201) and by detecting the color change according to the WST-1 method known in Francoeur A. M. and Assalian A. (1996) Biochemica 3, 19-25 to observe the amount of alive Jurkat cells when the cells were treated by the inhibitor. Spectra MAX 340 Spectrometer of Molecular Device Co. was used at the absorbance wavelength of 440 nm.

Structure (SMILES) | kinact/KI [1] [M⁻¹ s⁻¹] | IC50 [2] [nM]
CCC(C(=O)NC(CC(=O)O)C(=O)CF)c1c(C)ccn(Cc2ccccc2)c1=O (stereo not drawn) [Example 2, 3-[2-(1-Benzyl-4-methyl-2-oxo-1,2-dihydro-pyridin-3-yl)-butyrylamino]-5-fluoro-4-oxo-pentanoic acid] | 1830 | 2430
CCC(C(=O)NC(CC(=O)O)C(=O)CF)c1c(C)ccn(-c2ccccc2)c1=O (stereo not drawn) [Example 1, 5-Fluoro-3-[2-(4-methyl-2-oxo-1-phenyl-1,2-dihydro-pyridin-3-yl)-butyrylamino]-4-oxo-pentanoic acid] | 467 | 4900
CCC(C(=O)NC(CC(=O)O)C(=O)CF)c1cccn(Cc2ccccc2)c1=O (stereo not drawn) [Example 5, 3-[2-(1-Benzyl-2-oxo-1,2-dihydro-pyridin-3-yl)-butyrylamino]-5-fluoro-4-oxo-pentanoic acid] | 16700 | 810
CCC(C(=O)NC(CC(=O)O)C(=O)CF)c1c(C)ccn(CC(C)C)c1=O (stereo not drawn) [Example 4, 5-Fluoro-3-[2-(1-isobutyl-4-methyl-2-oxo-1,2-dihydro-pyridin-3-yl)-butyrylamino]-4-oxo-pentanoic acid] | 733 | 390
CCCC(C(=O)NC(CC(=O)O)C(=O)CF)c1cccn(Cc2ccccc2)c1=O (stereo not drawn) [Example 7, 3-[2-(1-Benzyl-2-oxo-1,2-dihydro-pyridin-3-yl)-pentanoylamino]-5-fluoro-4-oxo-pentanoic acid] | 6670 | 640
CC(C)C(C(=O)NC(CC(=O)O)C(=O)CF)c1cccn(Cc2ccccc2)c1=O (stereo not drawn) [Example 6, 3-[2-(1-Benzyl-2-oxo-1,2-dihydro-pyridin-3-yl)-3-methyl-butyrylamino]-5-fluoro-4-oxo-pentanoic acid] | 3500 | 2160
CCC(C(=O)NC(CC(=O)O)C(=O)CF)c1c(C)ccn(CCc2ccccc2)c1=O (stereo not drawn) [Example 3, 5-Fluoro-3-[2-(4-methyl-2-oxo-1-phenethyl-1,2-dihydro-pyridin-3-yl)-butyrylamino]-4-oxo-pentanoic acid] | 750 | 
CCC(C(=O)NC(CC(=O)O)C(=O)CF)c1cccn(Cc2ccccc2C(C)(C)C)c1=O (stereo not drawn) [Example 8, 3-{2-[1-(2-tert-Butyl-benzyl)-2-oxo-1,2-dihydro-pyridin-3-yl]-butyrylamino}-5-fluoro-4-oxo-pentanoic acid] | 33300 | 180
